The record followed here is US20250221966A1, “RXFP1 AGONISTS” (BRISTOL-MYERS SQUIBB COMPANY, priority 2021, published 2025).

What is called EC50 is the concentration giving half of the maximal effect.

In the test the target is T1, human RXFP1 (Homo sapiens, UniProt Q9HBX9).
T1 construct: expressed in transfected cells
T1 sequence (Q9HBX9 1-757): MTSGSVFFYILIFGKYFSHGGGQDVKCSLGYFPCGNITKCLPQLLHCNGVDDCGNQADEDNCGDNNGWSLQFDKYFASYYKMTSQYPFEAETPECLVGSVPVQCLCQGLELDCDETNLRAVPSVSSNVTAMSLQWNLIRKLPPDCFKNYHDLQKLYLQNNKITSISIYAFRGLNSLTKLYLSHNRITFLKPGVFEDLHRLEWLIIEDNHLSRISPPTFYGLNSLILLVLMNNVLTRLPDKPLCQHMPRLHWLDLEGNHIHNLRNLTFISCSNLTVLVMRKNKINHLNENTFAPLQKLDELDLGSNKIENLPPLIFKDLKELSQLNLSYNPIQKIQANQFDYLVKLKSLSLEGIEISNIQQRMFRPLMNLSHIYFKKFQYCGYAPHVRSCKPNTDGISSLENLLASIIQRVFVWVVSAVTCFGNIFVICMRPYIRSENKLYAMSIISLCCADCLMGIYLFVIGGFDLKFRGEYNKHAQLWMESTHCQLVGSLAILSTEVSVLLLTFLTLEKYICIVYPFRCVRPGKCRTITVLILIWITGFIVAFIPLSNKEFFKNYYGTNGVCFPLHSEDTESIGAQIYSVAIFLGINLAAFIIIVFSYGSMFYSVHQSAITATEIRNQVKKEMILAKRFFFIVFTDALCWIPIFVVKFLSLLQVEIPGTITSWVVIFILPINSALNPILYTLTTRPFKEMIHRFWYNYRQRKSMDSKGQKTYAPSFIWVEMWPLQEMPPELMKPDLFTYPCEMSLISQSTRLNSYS
In words: RXFP1 cAMP assay (hRXFP1 HEK293 cAMP assay, HTRF). The class given is cell-based. The settings on record: HEK293 cells stably expressing human RXFP1, 30 min at room temperature, read-out: cAMP hRXFP1 HEK293 Assay EC50. The procedure: RXFP1 Cyclic Adenosine Monophosphate (cAMP) Assays. […] Cells were dissociated and suspended in assay buffer. The assay buffer was HBSS buffer (with calcium and magnesium) containing 20 mM HEPES, 0.05% BSA, and 0.5 mM IBMX. Cells (3000 cells per well, except 1500 cell per well for HEK293 cells stably expressing human RXFP1) were added to 384-well Proxiplates (Perkin-Elmer). Cells were immediately treated with test compounds in DMSO (2% final) at final concentrations in the range of 0.010 nM to 50 μM. Cells were incubated for 30 min at room temperature. The level of intracellular cAMP was determined using the HTRF HiRange cAMP assay reagent kit (Cisbio) according to manufacturer's instructions. Solutions of cryptate conjugated anti-cAMP and d2 fluorophore-labelled cAMP were made in a supplied lysis buffer separately. Upon completion of the reaction, the cells were lysed with equal volume of the d2-cAMP solution and anti-cAMP solution. […] The potency and activity of a compound to […] cAMP production was then determined by fitting to a 4-parametric logistic equation from a plot of cAMP level versus compound concentrations.
For the compound `COc1ccc(C2=NOC3(C2)CC(CO)C3)cc1C(=O)N[C@H]1[C@@H](C(=O)Nc2ccc(F)c(C(F)(F)F)c2)[C@H]2CC[C@@H]1/C2=C\C1CC1` (single isomer, unassigned) [compound 711], the half-maximal effective concentration (EC50) worked out at 1560 nM.

Consider `COc1ccc(C2=NOC3COCC23)cc1C(=O)N[C@H]1[C@@H](C(=O)NCc2ccccc2OC(F)F)[C@H]2CC[C@@H]1/C2=C\C1CC1` (some centres unmarked) [compound 624], for which the EC50 was 169 nM.

As to `COc1cc(F)c(F)cc1C(=O)N[C@@H]1C2CCC(/C2=C\Br)[C@@H]1C(=O)Nc1ccc(F)c(C(F)(F)F)c1` (some centres unmarked) [compound 10], the concentration giving a half-maximal response (EC50) was 1100 nM.

As to `COc1ccc(-c2ccc(C3=NOC(CO)C3)cc2F)cc1C(=O)N[C@@H]1C2CCC(/C2=C/C2CCCC2)[C@@H]1C(=O)Nc1ccc(F)c(C(F)(F)F)c1` (some centres unmarked) [compound 897], the EC50 came to 1 nM.

With `COc1ccc(C2=NOC3CC(C)(CO)CC23)cc1C(=O)N[C@H]1[C@@H](C(=O)Nc2ccc(F)c(C(F)(F)F)c2)[C@H]2CC[C@@H]1/C2=C\C1CC1` (some centres unmarked) [compound 735], the concentration giving a half-maximal response (EC50) was found to be 1.3 nM.

`COc1ccc(-c2cnc3nn(CC(=O)O)cc3c2)cc1C(=O)N[C@@H]1C2CCC(/C2=C/C(F)(F)F)[C@@H]1C(=O)Nc1ccc(F)c(C(F)(F)F)c1` (some centres unmarked) [compound 318]: the EC50 is 11 nM.

`COc1ccc(-c2cc(C(OC(=O)NC3COC3)C(F)(F)F)ccc2F)cc1C(=O)N[C@@H]1C2CCC(/C2=C/C2CC2)[C@@H]1C(=O)Nc1ccc(F)c(C(F)(F)F)c1` (some centres unmarked) [compound 218]: the EC50 came to 2 nM.

For `O=C(N[C@H]1[C@@H](C(=O)Nc2ccc(F)c(C(F)(F)F)c2)[C@H]2CC[C@@H]1/C2=C\C1CC1)c1cc(C2=NOC3CC(CO)CC23)ccc1OCC(F)F` (some centres unmarked) [compound 781], the EC50 is 2.7 nM.

Regarding `CCOC(=O)/C=C1\C2CCC1[C@H](C(=O)Nc1ccc(F)c(C(F)(F)F)c1)[C@@H]2NC(=O)c1cc(F)c(F)cc1OC` (some centres unmarked) [compound 7], the EC50 worked out at 270 nM.

For `COc1ccc(-c2cc(C3=NOC4CC(O)CC34)ccc2F)cc1C(=O)N[C@H]1[C@@H](C(=O)Nc2ccc(F)c(C(F)(F)F)c2)[C@H]2CC[C@@H]1/C2=C\C1CC1` (some centres unmarked) [compound 908], the EC50 was 3.5 nM.

Turning to `CCO/N=C1\C2CCC1[C@H](C(=O)Nc1ccc(F)c(C(F)(F)F)c1)[C@@H]2NC(=O)c1cc(F)c(F)cc1OC` (some centres unmarked) [compound 133], the EC50 was 1700 nM.

Take `COc1ccc(-c2cc(C(NC(C)=O)C(=O)O)ccc2F)cc1C(=O)N[C@@H]1C2CCC(/C2=C/C2CC2)[C@@H]1C(=O)Nc1ccc(F)c(C(F)(F)F)c1` (some centres unmarked) [compound 184]: the half-maximal effective concentration (EC50) turned out to be 11 nM.

With `COc1ccc(-c2cccc(C3=NOC4CC(O)CC34)c2)cc1C(=O)N[C@H]1[C@@H](C(=O)Nc2ccc(F)c(C(F)(F)F)c2)[C@H]2CC[C@@H]1/C2=C\C1CC1` (some centres unmarked) [compound 901], the EC50 turned out to be 4.5 nM.

As to `COc1ccc(C2CC3COCC32)cc1C(=O)N[C@H]1[C@@H](C(=O)Nc2ccc(F)c(C(F)(F)F)c2)[C@H]2CC[C@@H]1/C2=C\C1CC1` (single isomer, unassigned) [compound 729], the half-maximal effective concentration (EC50) came out at 82 nM.

In the case of `COc1ccc(-c2ccc(C(=O)O)cc2F)cc1C(=O)N[C@H]1[C@@H](C(=O)Nc2ccc(F)c(C(F)(F)F)c2)[C@H]2CC[C@@H]1C2=C(C)C` [compound 84], the EC50 was determined as 110 nM.

Turning to `CC(C)=C1C2CCC1[C@H](C(=O)Nc1ccc(F)c(C(F)(F)F)c1)[C@@H]2NC(=O)c1cc(-c2cc(C(=O)O)ccc2F)ccc1N(C)C` (some centres unmarked) [Example 107], the EC50 was 180 nM.

For the compound `COc1ccc(N2CCC(NC(=O)OC(C)(C)C)C2)cc1C(=O)N[C@@H]1C2CCC(/C2=C/C(F)(F)F)[C@@H]1C(=O)Nc1ccc(F)c(C(F)(F)F)c1` (some centres unmarked) [compound 334], the EC50 is 1370 nM.

For the compound `COc1ccc(-c2cc(C(=O)O)ccc2F)cc1C(=O)N[C@@H]1C2CCC(/C2=C/C2CC2)[C@@H]1C(=O)NC1CCCCC1` (some centres unmarked) [compound 203], the EC50 was determined as 322 nM.

In the case of `COCCOCCOc1ccc(-c2cc(C(=O)O)ccc2F)cc1C(=O)N[C@@H]1C2CCC(/C2=C/c2ccccc2)[C@@H]1C(=O)Nc1ccc(F)c(C(F)(F)F)c1` (some centres unmarked) [Example 199], the EC50 stood at 128 nM.

In the case of `COc1c(F)cc(C2=NOC3CC(CO)CC23)cc1C(=O)N[C@H]1[C@@H](C(=O)Nc2ccc(F)c(C(F)(F)F)c2)[C@H]2CC[C@@H]1/C2=C\CCC(F)(F)F` (some centres unmarked) [compound 792], the EC50 was 1.4 nM.

Regarding `COc1ccc(-c2ccc(C(=O)NCCN3CCOCC3)cc2F)cc1C(=O)N[C@@H]1C2CCC(/C2=C/c2ccccc2)[C@@H]1C(=O)Nc1ccc(F)c(C(F)(F)F)c1` (some centres unmarked) [compound 198], the EC50 amounted to 76 nM.

`COc1ccc(-c2cc(C(=O)O)ccc2F)cc1C(=O)N[C@@H]1C2CCC(/C2=C/C2CC2)[C@@H]1C(=O)NC(C)c1nccs1` (some centres unmarked) [compound 309]: the concentration giving a half-maximal response (EC50) turned out to be 4380 nM.

Regarding `COc1ccc(C2=NOC3CC(C(C)O)CC23)cc1C(=O)N[C@H]1[C@@H](C(=O)Nc2ccc(F)c(C(F)(F)F)c2)[C@H]2CC[C@@H]1/C2=C\C1CC1` (some centres unmarked) [compound 855], the EC50 was 4.5 nM.

For `COc1ccc(C2=NOC3C(O)CCC23)cc1C(=O)N[C@H]1[C@@H](C(=O)Nc2ccc(F)c(C(F)(F)F)c2)[C@H]2CC[C@@H]1/C2=C\C1CC1` (single isomer, unassigned) [compound 483], the EC50 worked out at 7.3 nM.

For `COc1cc(C)c(-c2nnc(CO)s2)cc1C(=O)N[C@H]1[C@@H](C(=O)Nc2ccc(F)c(C(F)(F)F)c2)[C@H]2CC[C@@H]1/C2=C\C1CC1` [compound 808], the EC50 worked out at 4.2 nM.

As to `COc1ccc(C2=NOC3CNCC23)cc1C(=O)N[C@H]1[C@@H](C(=O)Nc2ccc(F)c(C(F)(F)F)c2)[C@H]2CC[C@@H]1/C2=C\C1CC1` (stereo partly drawn) [Example 437, (1R,2S,3R,4R,Z)-7-(cyclopropylmethylene)-N-(4-fluoro-3-(trifluoromethyl)phenyl)-3-(2-methoxy-5-(3a,5,6,6a-tetrahydro-4H-pyrrolo[3,4-d]isoxazol-3-yl)benzamido)bicyclo[2.2.1]heptane-2-carboxamide], the 50% effective concentration (EC50) stood at 31 nM.

`COc1ccc(C2=NOC3CC(CO)CC23)cc1C(=O)N[C@H]1[C@@H](C(=O)N[C@H](C)C2(C)CC2)[C@H]2CC[C@@H]1/C2=C\C1CC1` (some centres unmarked) [compound 766]: the EC50 was determined as 2.7 nM.

For `COc1ccc(C2=NOC3CC(C(N)=O)CC23)cc1C(=O)N[C@H]1[C@@H](C(=O)Nc2ccc(F)c(C(F)(F)F)c2)[C@H]2CC[C@@H]1/C2=C\C1CC1` (single isomer, unassigned) [compound 459], the concentration giving a half-maximal response (EC50) was 2.5 nM.

With `COc1ccc(-c2cc(C(OC(=O)NC(C)(C)C)C(=O)O)ccc2F)cc1C(=O)N[C@H]1[C@@H](C(=O)Nc2ccc(F)c(C(F)(F)F)c2)[C@H]2CC[C@@H]1/C2=C\C1CCCC1` (some centres unmarked) [compound 933], the EC50 worked out at 0.9 nM.

For the compound `COc1ccc(C2=NO[C@H]3C[C@H](CO)C[C@@H]23)cc1C(=O)N[C@H]1[C@@H](C(=O)NC23CC(C)(C2)C3)[C@H]2CC[C@@H]1/C2=C\C[C@@H](O)C(F)(F)F` [compound 831], the EC50 is 3.5 nM.

Turning to `COc1ccc(C2CC3CN(C(=O)OC(C)(C)C)CC32)cc1C(=O)N[C@H]1[C@@H](C(=O)Nc2ccc(F)c(C(F)(F)F)c2)[C@H]2CC[C@@H]1/C2=C\C1CC1` (single isomer, unassigned) [compound 730], the EC50 came out at 263 nM.

As to `COc1ccc(-c2cc(C(NC(=O)C3CCOCC3)C(=O)O)ccc2F)cc1C(=O)N[C@H]1[C@@H](C(=O)N[C@H](C)C2(C)CC2(F)F)[C@H]2CC[C@@H]1/C2=C\C1CC(F)(F)C1` (some centres unmarked) [compound 971], the EC50 stood at 2.8 nM.
